Species on record: Rattus norvegicus
Assay: Open TG-GATES - Regimen: Daily Repeat
Assay type: toxicity, organism-based, Sprague-Dawley
Parameters: regimen Daily Repeat, gender Male, age 6 weeks
Details: in vivo, po, 10 mg/kg, route gavage, dose level Low; for APTT / Bas / Eos / Fbg / Hb / Ht / Lym / MCH / MCHC / MCV / Mono / Neu / PT / Plat / RBC / Ret / WBC: tissue Blood; for KIDNEY_L / KIDNEY_R / KIDNEY_TOTAL: tissue Kidney; for LIVER: tissue Liver; for A/G / ALP / ALT / AST / BUN / CRE / Ca / Cl / DBIL / GLC / IP / K / LDH / Na / PL / RALB / TBIL / TC / TG / TP / gamma-GTP: tissue Plasma

## O=C1CN(/N=C/c2ccc([N+](=O)[O-])o2)C(=O)N1 [NITROFURANTOIN]
72 h, time 3 day
  TERMINAL_BW: 245.3 g
  APTT: 18 s
  Bas: 0%
  Eos: 1%
  Fbg: 213.8 mg/dL
  Hb: 13.2 g/dL
  Ht: 37.5%
  Lym: 79.8%
  MCH: 22.4 pg
  MCHC: 35.3%
  MCV: 63.3 fL
  Mono: 2.6%
  Neu: 15.2%
  PT: 12.5 s
  Plat: 122.9 x10_4/uL
  RBC: 592.2 x10_4/ul
  Ret: 6.6%
  WBC: 108.7 x10_2/uL
  KIDNEY_L: 1.1 g
  KIDNEY_R: 1 g
  KIDNEY_TOTAL: 2.1 g
  LIVER: 11.5 g
  A/G: 1.7
  ALP: 964.4 IU/L
  ALT: 33.2 IU/L
  AST: 68 IU/L
  BUN: 13.8 mg/dL
  CRE: 0.4 mg/dL
  Ca: 10.6 mg/dL
  Cl: 102.4 meq/L
  DBIL: 0.096 mg/dL
  GLC: 212.6 mg/dL
  IP: 7.2 mg/dL
  K: 3.9 meq/L
  LDH: 200.2 IU/L
  Na: 140 meq/L
  PL: 134.4 mg/dL
  RALB: 3.4 g/dL
  TBIL: 0.1 mg/dL
  TC: 65.6 mg/dL
  TG: 99.8 mg/dL
  TP: 5.5 g/dL
  gamma-GTP: 1 IU/L
[…], time 7 day
  TERMINAL_BW: 276.7 g
  APTT: 20.1 s
  Bas: 0%
  Eos: 1%
  Fbg: 228.8 mg/dL
  Hb: 13.9 g/dL
  Ht: 39.5%
  Lym: 79.2%
  MCH: 21.7 pg
  MCHC: 35.2%
  MCV: 61.9 fL
  Mono: 3%
  Neu: 16.4%
  PT: 12.6 s
  Plat: 124.7 x10_4/uL
  RBC: 639.4 x10_4/ul
  Ret: 6%
  WBC: 123.1 x10_2/uL
  KIDNEY_L: 1.1 g
  KIDNEY_R: 1.1 g
  KIDNEY_TOTAL: 2.3 g
  LIVER: 13.3 g
  A/G: 1.6
  ALP: 916.8 IU/L
  ALT: 33.4 IU/L
  AST: 62.4 IU/L
  BUN: 15.8 mg/dL
  CRE: 0.4 mg/dL
  Ca: 11 mg/dL
  Cl: 100.6 meq/L
  DBIL: 0.1 mg/dL
  GLC: 205 mg/dL
  IP: 7.6 mg/dL
  K: 4.3 meq/L
  LDH: 201.2 IU/L
  Na: 140 meq/L
  PL: 156.8 mg/dL
  RALB: 3.5 g/dL
  TBIL: 0.2 mg/dL
  TC: 74.4 mg/dL
  TG: 142.4 mg/dL
  TP: 5.7 g/dL
  gamma-GTP: 1 IU/L
[…], time 14 day
  TERMINAL_BW: 338.3 g
  APTT: 19.8 s
  Bas: 0%
  Eos: 1%
  Fbg: 223 mg/dL
  Hb: 14.3 g/dL
  Ht: 41.2%
  Lym: 80.6%
  MCH: 21 pg
  MCHC: 34.8%
  MCV: 60.3 fL
  Mono: 2.2%
  Neu: 15%
  PT: 12.2 s
  Plat: 114.6 x10_4/uL
  RBC: 683 x10_4/ul
  Ret: 4.3%
  WBC: 119.2 x10_2/uL
  KIDNEY_L: 1.3 g
  KIDNEY_R: 1.3 g
  KIDNEY_TOTAL: 2.5 g
  LIVER: 15.1 g
  A/G: 1.5
  ALP: 781 IU/L
  ALT: 32.6 IU/L
  AST: 60.4 IU/L
  BUN: 17.6 mg/dL
  CRE: 0.5 mg/dL
  Ca: 10.7 mg/dL
  Cl: 102.6 meq/L
  DBIL: 0.1 mg/dL
  GLC: 208 mg/dL
  IP: 6.5 mg/dL
  K: 3.7 meq/L
  LDH: 209.8 IU/L
  Na: 140.4 meq/L
  PL: 160.6 mg/dL
  RALB: 3.6 g/dL
  TBIL: 0.2 mg/dL
  TC: 75 mg/dL
  TG: 149.6 mg/dL
  TP: 6.1 g/dL
  gamma-GTP: 1 IU/L
[…], time 28 day
  TERMINAL_BW: 422 g
  APTT: 19.9 s
  Bas: 0%
  Eos: 1%
  Fbg: 220.4 mg/dL
  Hb: 15 g/dL
  Ht: 43.1%
  Lym: 83.8%
  MCH: 19.8 pg
  MCHC: 34.8%
  MCV: 56.8 fL
  Mono: 2.2%
  Neu: 12.2%
  PT: 12.7 s
  Plat: 99.8 x10_4/uL
  RBC: 759 x10_4/ul
  Ret: 2.6%
  WBC: 140.7 x10_2/uL
  KIDNEY_L: 1.5 g
  KIDNEY_R: 1.5 g
  KIDNEY_TOTAL: 2.9 g
  LIVER: 17.2 g
  A/G: 1.3
  ALP: 736.4 IU/L
  ALT: 32.6 IU/L
  AST: 59.2 IU/L
  BUN: 16.6 mg/dL
  CRE: 0.5 mg/dL
  Ca: 10.4 mg/dL
  Cl: 102.4 meq/L
  DBIL: 0.098 mg/dL
  GLC: 224 mg/dL
  IP: 6.3 mg/dL
  K: 3.5 meq/L
  LDH: 137 IU/L
  Na: 139.6 meq/L
  PL: 140.8 mg/dL
  RALB: 3.4 g/dL
  TBIL: 0.2 mg/dL
  TC: 66.2 mg/dL
  TG: 104.6 mg/dL
  TP: 5.9 g/dL
  gamma-GTP: 1 IU/L

From ChEMBL document CHEMBL3885861, “Open TG-GATES”
